{
  "source": "patent US6361805B1",
  "about": "“Method of preparation and composition of a water soluble extract of the plant species uncaria for enhancing immune, anti-inflammatory, anti-tumor and DNA repair processes of warm blooded animals” (priority 1997, dated 2002)",
  "system": "HL-60 cells",
  "experiment": "Induction of apoptosis, scored by phase contrast morphological criteria",
  "format": "cell-based, human",
  "conditions": "HL-60, 100 μM hydrogen peroxide positive control, 0-72 hours",
  "description": "FIG. 2. Time course of apoptosis in HL-60 cells induced by C-MED-100 extract (Example 1) as compared to negative (no treatment) or positive (100 μM H2O2 exposure) controls.\nFor the purpose of evaluating apoptosis in vitro, human leukemic HL-60 cells were cultured at a density of 0.5×10^6 cells per milliliter in 10% calf serum supplemented RPMI medium in a 5% CO2 atmosphere at 37° C. for 48 hours. The cells were harvested by centrifugation and resuspended in a fresh medium at a concentration of 1-2×10^6 cells per milliliter in 15 milliliter Falcon test tubes for bioassay purposes. Next the cells were exposed to either 100 μM hydrogen peroxide as a positive control or 397 μg per milliliter C-Med-100 extract prepared according to Example 1 or no exposure for 0-72 hours at 37° C. Samples of cells were taken from the cultures at the time periods indicated in FIG. 2 and the % apoptosis in the total cells counted were analyzed and scored by phase contrast morphological criteria.",
  "data": [
    {"compound": "OO", "note": "[Hydrogen peroxide]", "values": [
      {"measurement": "apoptotic cells over time", "value": "massive cell death by apoptosis within 24 hours"}
    ]}
  ]
}
